From patent US11674967B2, “Method of identifying potential inhibitors of APO TNFα trimers” (UCB BIOPHARMA SRL, priority 2015, dated 2023)

How the values were obtained:
human TNFα trimer = biological target: T1, human TNFα trimer (Homo sapiens, UniProt P01375); assay: RMSD of crystal structure of compound-bound TNFα trimer to Reference Structure Compound 34; conditions: Cα atoms of β-sheet residues, all three subunits, PyMOL
T1 construct: His6Smt-tag (N, cleaved yes); made in house; host or cells: E. coli (vector pEMB54)
T1 sequence (P01375 with tags, fused parts or gaps): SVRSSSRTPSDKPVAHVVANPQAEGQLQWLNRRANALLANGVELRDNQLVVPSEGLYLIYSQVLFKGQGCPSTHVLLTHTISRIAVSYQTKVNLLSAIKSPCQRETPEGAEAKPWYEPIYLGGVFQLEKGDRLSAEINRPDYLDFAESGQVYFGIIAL
Procedure: Cells were pre-cultured at 37° C. in rich media, induced with the addition of 0.1% arabinose and allowed to express overnight at 25° C. in vector pEMB54. This vector introduces a cleavable N-terminal His6Smt-tag. The cells were lysed and purified by Ni-NTA chelate chromatography. The fusion protein was eluted with buffer containing imidazole and cleaved by the addition of protease. The final cleaved TNFα protein was purified by a subtractive Ni chelate chromatography step to remove the fusion tag and further purified by size exclusion chromatography to remove the remaining impurities. The final TNFα product was typically concentrated to 20.0 mg/ml and flash frozen in liquid nitrogen.
Purified human TNF[…] (20.0 mg/ml, VC 2043) was diluted to 4-7 mg/ml in 10 mM HEPES pH 7.5, 150 mM NaCl buffer followed by overnight incubation at 4° C. with 0.3-0.5 mM compound (1-2 molar excess). The TNF[…] compound complexes were crystallized by sitting drop vapor diffusion by mixing 0.5 μl of complex with 0.5 μl of 21.44% PEG 3350, 100 mM Tris, pH 9.0 (UCB1474433); or 22.0% PEG 3350, 100 mM glycine, 100 mM Tris, pH 8.5 (UCB1480595); or 25.6% PEG 3350, 100 mM Tris, pH 8.3, 3% xylitol (UCB5143079) or other formulation with varying precipitant concentration or additives over 100 μl of the same crystallization solution. Other formulations for other compounds include a range of PEG 3350 of 8-28%. Other PEG-like additives include PEG 1000 (8-18%) or PEG 2000 (10-13%). Other additives include MPD (5-13%) or 200 mM NaCl. Other buffers include 100 mM Hepes (pH 7-8), 100 mM Tris or bis-Tris (pH 6.7-9.0). Other non-PEG 3350 crystallization solutions consist of PEG 2000 (14-19%), 100 mM Hepes, pH 8, 25 mM arginine; or 17% PEG 10000, 200 mM ammonium acetate, 100 mM bis-Tris, pH 5.5; or 30% PEG 2000 MME, 100 mM sodium acetate, 100 mM Mes, pH 6.5.
Crystals were briefly soaked in ethylene glycol and/or vitrified directly in liquid nitrogen for data collection.
X-ray diffraction data were collected from a synchrotron source at a wavelength, most frequently, of 0.976484 Å and recorded on CCD detector. […] The structure of the human TNF[…] (VC 2043) complexed with compound was solved by molecular replacement using Phaser with input model of 1TNF. […] Iterative manual model building using Coot (Emsley and Cowtan, 2004) and Refmac (Murshudov et al., 1997) continued until R and Rfree converged. […] The resolution of the structures was most frequently around 2.15 Å.
Root mean squared deviation (RMSD) calculations were carried out to ascertain the distance of each of the crystal structures of distorted TNFα trimer to a reference structure.
RMSD calculations were done using the program PyMOL (www.pymol.org). In this example version 1.7. was used. The cmd.rms PyMOL command was used with defined pairs of atoms. The atoms used were the backbone Ca's of certain residues within the β-strands of TNFα. The residue numbers used are shown below:
These residue numbers are those within the published structure of TNFα with PDB code 1A8M and within the distorted TNFα trimer structures of this invention. The residue numbers are also according to the sequence of SEQ ID NO:36. The residues in each of the three chains with the TNFα structures, (labelled A, B, and C according to our instructions) were used.
The command cmd.rms was used with the following arguments:
rms=cmd.rms(“(moving)”, “(target)”, matchmaker=4, quiet=0, cycles=0)
where “(moving)” is the selection of atoms in a given TNFα structure and “(target)” is the selection of equivalent atoms within the reference structure.
The RMSD was calculated for each structure against all others. The “representative structure” or “Reference Structure” was chosen to be the one with the lowest sum RMSD to all others—the structure “Compound 34” or “Compound34.pdb”.
Reference Structure (Compound 34) and Query Structure (Compound 64) were overlaid (see FIG. 17 with Reference Structure emboldened) by: • 1. […]

TNFR2 = assay: Membrane TNF - TNFR2 signalling (NS0-mTNF cells with expanded primary human T cells); assay type: cell-based; conditions: compound bound to membrane TNFα on NS0 cells
Procedure: A murine B cell line (NS0-mTNF) stably expressing non-cleavable human membrane TNF due to a mutation at the TACE cleavage site was used to trigger TNFR2 signalling in PHA-L and IL-2 expanded primary human T cells. […] TNFR1 was also present on these cells but was blocked using a UCB mouse anti-human-TNFR1 antibody 5R16.
NS0-mTNF cells were cultured with 10 μM NCEs for 1 hour to allow binding of Compounds to membrane TNF. T cells were then mixed with the NS0-mTNF cells and following a brief spin to allow cell-cell contact, cells were incubated for 5 min and then lysed in lysis buffer. […] First TRAF-2 recruitment to the TNFR2 receptor was measured in Co-immunoprecipitation experiments as a measure of membrane proximal signalling. After lysis of cells TNFR2 was isolated from the lysate using polyclonal goat anti-human TNFR2 antibodies followed by protein G sepharose bead purification. TNFR2 associated TRAF-2 was then measured in immunoblots after running the purified TNFR2 preparation on a SDS-PAGE. In addition, the whole cell lysate was also sampled for the presence of pNFκB using SDS-PAGE and pNFκB specific immunoblots.
• PBMC from 3 three different donors were cultured in 6 well plates with 10×10^6 cells per well in 5 ml of RPMI1640 supplemented with 10% FCS, 1% human serum, HEPES GlutaMAX, 25 U/ml hIL-2 (Roche) and 2 μg/ml PHA-L (Sigma) to grow out T cells • after 3 days cells were resuspended and cultured in 75 cm^2 flasks with the same media as above, but lacking the PHA-L • growth of culture was monitored and media was changed every 3 days.
This is a 2× solution • prepare 500 μl of 10×10^6 NS0-wt cells • After 1 h add 500 μl human T cells (50×10^6 cells/test) in human media at 37° C. T cells were preincubated for 15 min @37° C. with 50 μg/ml 5R16 anti-TNFR1 Fab-PEG to block signalling via TNFR1 prior adding to the NS0 cells. […]

TNFα [1] = biological target: T2, TNFα (Homo sapiens, UniProt P01375); assay: Surface plasmon resonance kinetics of compound binding to immobilised TNFα
Procedure: Surface plasmon resonance was used to measure the association rate, the dissociation rate and the affinity of the compounds of formulae (3) and (15) for TNFα (FIGS. 12A and B). For the purpose of this study a Biacore T100/T200 was used.
TNFα was immobilised at pH5 to a level of 5-8 KRU onto a CMS sensor in HBS-P buffer (10 mM HEPES pH 7.4, 0.15 M NaCl, 0.005% Surfactant P20, BIAcore, GE Healthcare). The TNFα was then equilibrated in HBS-P with 5% DMSO for at least 5 hours. The samples were diluted from 10 mM stocks into DMSO matched buffer and left to solubilise for at least 5 hours. The flow rate was […].
This assay was performed by adding 4 or 5 concentrations of compound starting from a highest concentration of 25 μM for compound of formula (3) and 1 μM for compound of formula (15) and then serially diluting this sample. Background subtraction binding curves were analysed using the BIAevaluation software following standard procedures. Binding, affinity and kinetic parameters were determined using Biacore software. The kinetic data were fitted using the levenberg marquardt algorithm.
Target sequence in this assay (P01375 77-233 limits assumed): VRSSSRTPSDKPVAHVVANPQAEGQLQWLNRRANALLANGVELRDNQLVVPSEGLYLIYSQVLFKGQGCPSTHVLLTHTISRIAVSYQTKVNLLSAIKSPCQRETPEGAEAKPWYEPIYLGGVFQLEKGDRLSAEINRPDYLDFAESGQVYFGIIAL

TNFα [2] = biological target: T2, TNFα; assay: Meso Scale Discovery (MSD) assay of TNFα binding to plate-coated TNFR-ECD; set-up: purchased R&D Systems; conditions: single point, 100 μM, 5% DMSO
Procedure: 384 well uncoated plates (standard binding) Meso Scale Discovery plates (MSD) were coated overnight with the extracellular domain of TNFR (TNFR-ECD) (10 μl, 1 ug/mL in PBS). To ensure even distribution plates were centrifuged at 1000 rpm for 2 minutes. The plates were then sealed and stored at +4° C. overnight.
The wells of the plates were then washed three times in 50 μl phosphate buffered saline pH 6.5 (PB) with 0.05% Tween 20 (wash buffer), and then blocked with 50 μl 2% BSA. The plates were then incubated at room temperature on a shaker (600 rpm) for 2 hours. After this incubation plates were washed (3×50 μl wash buffer per well). During the blocking incubation, compounds of formulae (3) and (15) were pre-incubated with TNF (R&D Systems) prior to addition to the pre-blocked and washed MSD plates. For a single point assay as shown in FIG. 2A the compounds were assayed at a final concentration of 100 μM (5% final v/v DMSO). […]
The plates were then washed (3×50 μl wash buffer per well), followed by the addition of 50 μl MSD Read buffer T plus surfactant (diluted 1 in 2 in H2O) and read on a SECTOR Imager 6000.
For single point assays percentage inhibition was calculated using a control sample without compound.
For EC50s determination results were calculated by standard means using a 4 parameter logistic model (sigmoidal dose response model).
Target sequence in this assay (P01375 77-233 limits assumed): as above
Target sequence in this assay (P19438 30-211 partner limits assumed): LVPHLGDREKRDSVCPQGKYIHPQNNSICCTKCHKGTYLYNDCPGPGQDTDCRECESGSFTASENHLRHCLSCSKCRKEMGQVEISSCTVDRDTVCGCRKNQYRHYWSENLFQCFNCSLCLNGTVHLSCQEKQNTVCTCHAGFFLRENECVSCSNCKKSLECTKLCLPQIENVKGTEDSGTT

RMSD (Å) with Compound 34 (human TNFα trimer) [Å]	kon (TNFα [1]) [M⁻¹ s⁻¹]	% inhibition of TNFα binding to the TNF receptor (TNFα [2])	Structure (SMILES)	TNFR2 specific membrane proximal (TRAF-2 recruitment to TNFR2) and downstream (pNFκB) signalling (TNFR2)
0.22	5470	–	O=C1CCCN1c1cccc(OCc2nc3ccc(-c4ccc(=O)[nH]c4)cc3n2Cc2ccccc2OC(F)F)c1 [Compound 39]	does not impair
0.36	–	–	Cc1nc2ccc(-c3ccc(N4CCNCC4)nc3)cn2c1Cc1ccccc1OC(F)F [Compound 43]	does not impair
0.22	–	–	Cc1nc2cc(F)c(-c3cnc(N4CC(O)(C(F)(F)F)C4)nc3)cn2c1[C@@H](O)c1ccccc1OC(F)F [Compound 64, 1-[5-[3-[(S)-[2-(difluoromethoxy)phenyl]-hydroxy-methyl]-7-fluoro-2-methyl-imidazo[1,2-a]pyridin-6-yl]pyrimidin-2-yl]-3-(trifluoromethyl)azetidin-3-ol]	–
–	–	+80%	Cc1cc2occ(CN(C)CCN(C)Cc3cn(-c4cccc(C(F)(F)F)c4)c4ccccc34)c(=O)c2cc1C [SPD-304]	–
